# Test results as given in patent publication US12193465B2, “Materials and methods for extending shelf-life of foods” (JP Laboratories, Inc., priority 2021, dated 2025).
# Counter-ions that a name gives are not always drawn. Like-named read-outs stand apart in the source and are kept apart here.
# How the values were obtained:
# [1] = General shelf-life extension of foods (spoilage criteria of Example 9); conditions: for Effectiveness for controlling one or more spoilage criteria: variety of foods
# Experimental: (§1) All studies were conducted at a room temperature of about 25° C. To determine the effectiveness of a shelf-life extender, a control sample which was untreated with any shelf-life extenders, was tested identical to the test samples. […] All studies in those Examples of Tables 1-6 were conducted in closed plastic or glass containers. Containers, such as plastic containers, without or with lids having holes can be used if it is advantageous to let excess moisture escape or to prevent condensation of moisture released by some produce.
# (§2) Food exposed to preservatives or by a sachet was placed in typically polystyrene or acrylic containers depending upon the size and number of food items. Glass jars and bottles were also used. The containers were snap-closed or with a lid. The containers were purchased mainly from Amazon or Webstaurant.com store. When needed, plastic containers with holes or without lids were used.
# (§3) For controlled exposure and a constant supply of a preservative to foods, sachets containing one or more drops of preservatives were used. Sachets were made by placing an appropriate amount of a preservative in a plastic bag containing a piece of paper and heat sealing the bag. The sachet bag materials used were Tyvek® for solid preservative, polyethylene, polyester and high barrier multilayer films were used for liquid preservatives. These bags were sealed with a heat sealer. The sachet was typically applied on one side of the container containing food.
# (§4) A piece of paper napkin was taped inside a 100 microns thick polyethylene or polyester Ziploc bag. The size of the bag varied from ˜20 cm×30 cm to ˜60 cm×90 cm depended on the sample with sandwich bags up to gallon bags being exemplary. The paper napkin was wetted with 0.1-0.5 ml of a preservative or a mixture of preservatives. A tray of aluminum, stainless steel or glass containing the foods was placed inside the plastic (polyethylene, polyester and multilayer-laminated) bag and almost closed by locking the Ziploc. Air was blown with an air blower from the unclosed end until the bag was fully blown and then quickly closed tightly by locking the remaining Ziploc. If a preservative was a sublimable solid, it was placed in a petri dish and then placed inside the bag in the tray before blowing air. The exposure time was varied from five minutes to a day depending upon the food. […] The assembly was shaken periodically. After the predetermined time, the tray containing produce was removed from the bag, allowed to de-gas for 10-30 minutes in air and the produce was then placed in an appropriately sized container. Glass and stainless steel containers with lids were also often used.
# (§5) A solution of one or more preservatives was prepared in a large (e.g., 2-10 liter) glass beaker or a jar. A sack containing the food was prepared by placing the food in a plastic mesh bag. The sack was placed in the solution of the preservative. A smaller glass beaker containing proper amount of water was place over the package to keep the sack soaked in the solution of the preservative during the treatment. The solution was stirred either with a plastic spatula or with a magnet over a magnetic stirrer. After treatment, the mesh sack was removed, the produce was washed in a tray with running water, strained and air dried at 30° C. in an air blowing oven for about 5-10 minutes, while shaking the tray or turning the food periodically followed by placing the sample in an appropriate container.
# (§6) The food was placed in mesh trays and sprayed with an aqueous solution (1-10%) of a preservative while shaking the tray or turning the food. The solution was allowed to drain from the tray and the food was air dried in an air blowing oven at 30° C. for about 5-10 minutes, while shaking the tray or turning food periodically followed by placing the sample in an appropriate container.
# fungus = test: Fungus growth on treated foods stored in closed containers at room temperature; conditions: for Spoilage Time - Sample: Fungus, Sachet, 100% relative humidity;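 on Effectiveness on ginger: compared with untreated control ginger in closed containers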
# From the text: (§7) Most of the foods changed color or texture.
# Glass jars and bottles were also used. The containers were snap-closed or with a lid.
# (§8) These bags were sealed with a heat sealer.
# (§9) The assembly was shaken periodically.
# [2] = test system: green tomato, papaya, banana, mango, peppers, tindora; test: Ripening of fruits and vegetables (delayed or expedited); conditions: for Spoilage Time - Sample (Expedited ripening): control 14+ days; for Ripening, green-to-yellow (or red) color-change: pre-dipping into 10% solution
# Experimental: as §1, §3, §4, §5
# The untreated (control sample) and treated food were placed in proper sized plastic containers and the containers were tightly closed.
# The following major criteria were used for determining spoilage of foods: growth of fungus, color change, unpleasant odor, wilting, firmness or shriveling, change of state (liquid to solid or vice versa), and sprouting or germination Example 10: Sources of food.
# [3] = Color change / browning / yellowing of foods (keeping produce green longer); conditions: for Spoilage Time - Sample (Color change): 2% in water sprayed
# Experimental: as §1, §2, §3, §4, §5, §6
# [4] = test system: grains, legumes, potatoes, garlic; test: Germination / sprouting of grains, legumes and tubers; conditions: for Spoilage Time - Sample: Example 111, Germination, Mixed Legumes, 64 hrs P-E, control 3 days
# From the text: as §8, §9
# avocado = test: Softening / rotten inside (spoiled flesh) of avocado
# From the text: as §7, §9
# [5] = Curdling / cream / solidification of milk;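 further: compared with untreated control milk in closed containers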
# From the text: as §7
# [6] = Color loss of meat and fish; conditions: for Spoilage Time - Sample (Color loss): Sachet, control 2 days
# From the text: as §7, §8
# [7] = test system: parval, methi, coriander, radish, guar; test: Shriveling / wilting / dehydration / becoming wet of produce; conditions: for Spoilage Time - Sample (Dehydration): 0.08 hr soaking in 22% solution in water
# From the text: as §7, §9
compound,measurement,setting,value
"CCCCOCCO [2-butoxyethanol, 2-Butoxyethanol]",Effectiveness for controlling one or more spoilage criteria,[1],effective to a greater or lesser extent
same,Fungus growth,fungus; 312 h,> 29 days
same,Spoilage Time - Sample (Fungus),"fungus; Red tomato, 2 hrs P-E, control 13 days",29 days
same,Spoilage Time - Sample (Expedited ripening),"[2]; Mango, Sachet",8 days
"CCOCCO [2-ethoxyethanol, 2-Ethoxyethanol]",Spoilage Time - Sample (Ripening),"[2]; Mango, 2 hrs P-E, control 16 days",23 days
"O=C1C=CCCC1 [2CY, 2-Cyclohexen-1-one]",Spoilage Time - Sample,"[3]; Example 114, Yellowing, Coriander, 1 hr P-E, control 10 days",10+ days
same,Spoilage Time - Sample,"[3]; Example 114, Yellowing, Coriander, 1 hr P-E, control 10 days, listed as 2-cyclohexen-1-one",significantly delayed
same,Spoilage Time - Sample,[4],3 days
same,Spoilage Time - Sample,[4]; listed as 2-cyclohexen-1-one,delayed or prevented
same,Shelf-life of flowery vegetables,[1],extended shelf-life
same,Shelf-life of shelled and unshelled peanuts,[1]; peanuts,extended
same,Effectiveness for controlling one or more spoilage criteria,[1],effective to a greater or lesser extent
same,Spoilage Time - Sample,"avocado; Example 113, Softening, Avocado, 2 hrs P-E, control 2 days",2 days
same,Spoiling of the flesh with development of fungus,"avocado; avocados, Examples 77, 78, 107, 108, 113 & 171",significantly delayed
same,Effectiveness on ginger,"fungus; ginger, pre-exposure and sachet method",found effective
same,Spoilage Time - Sample,"[2]; Example 112, Ripeness, Papaya, 2 hrs P-E, control 7 days",11 days
same,Spoilage Time - Sample,"[2]; Example 112, Ripeness, Papaya, 2 hrs P-E, control 7 days, listed as 2-cyclohexen-1-one",at least 11 days
same,Effectiveness in delaying the ripening of tomatoes,[2]; unsaturated versus saturated homolog,more effective
"NCCN [ED, Ethylenediamine]",Spoilage Time - Sample,"[3]; Example 131, Color change, Parsley, 0.25 hr P-E, control 7 days",22+ days
same,Spoilage Time - Sample,"[3]; Example 131, Color change, Parsley, 0.25 hr P-E, control 7 days, listed as ethylenediamine",significantly delayed
same,Effectiveness for controlling one or more spoilage criteria,[1],effective to a greater or lesser extent
same,Spoilage Time - Sample,"[2]; Example 132, Ripening, Banana, 0.25 hr P-E, control 18 days",21+ days
same,Spoilage Time - Sample,"[2]; Example 132, Ripening, Banana, 0.25 hr P-E, control 18 days, listed as ethylenediamine",> 21 days
"S=C=Nc1ccccc1 [PI, phenyl isothiocyanate]",Effectiveness at extending the shelf-life of potatoes,[4]; potatoes,effective
same,Curdling,[5]; raw cow milk and raw goat milk,delayed curdling
same,Spoilage Time - Sample,"fungus; Example 87, White pearl onions, control 8 days",48 days
same,Spoilage Time - Sample,"fungus; Example 88, Yellow pearl onions, control 24 days",48 days
same,Effectiveness in extending freshness of cold press fresh juices,fungus; cold press fresh juices,effective
"N.NC(=O)O [ammonium carbamate, Ammonium carbamate]",Loss of pinkish fleshy color,"[6]; Example 143, ground beef, sachet, 3rd day, control within 2 days",lost less fleshy pinkish color
same,Shelf-life of flowery vegetables,[1],extended shelf-life
same,Spoilage Time - Sample (Fungus),fungus,80+ days
"C[N+](C)(C)CCO.[Cl-] [choline chloride, Choline chloride]",Spoilage Time - Sample (Color loss),"[3]; Broccoli, 1 hr soaking in 5% solution in water, control 1 day",8 days
same,Remaining green,"[3]; Example 149, Bok choy, pre-dipped into 22% solution",remained green longer
same,Color change,"[3]; Example 150, parsley, pre-dipping/rinsing in 22% solution",delayed the color change
same,Color change from green-to-yellow,"[3]; Example 152, broccoli, dipped into 5% solution",significantly delayed
same,Sprouting,"[4]; Example 154, potatoes, pre-dipping into 10% solution",either prevented or significantly delayed
same,Spoilage Time - Sample (Sprouting),"[4]; Fingerling Potatoes, 2 hrs soaking in 10% solution in water, control 10 days",16 days
same,Spoilage Time - Sample (Dehydration),"[7]; Bok Choy, control 7 days",11 days
same,Spoilage Time - Sample (Dehydration),"[7]; Parsley, control 7 days",11 days
same,"Ripening, green-to-yellow (or red) color-change","[2]; Example 151, green chili peppers",delayed
same,"Ripening, green-to-yellow (or red) color-change","[2]; Example 153, Jalapeno peppers",delayed
same,Spoilage Time - Sample (Ripening),"[2]; Jalapeño Peppers, 1 hr soaking in 10% solution in water, control 3 days",8 days
same,Spoilage Time - Sample (Ripening),"[2]; Peppers, 2 hrs soaking in 10% solution in water, control 6 days",13 days
"COC(=O)OC [dimethyl carbonate, Dimethyl carbonate]",Effectiveness for controlling one or more spoilage criteria,[1],effective to a greater or lesser extent
same,Expedited ripening,"[2]; Example 155, mango, control around 14 days",8 days
same,Spoilage Time - Sample (Expedited ripening),"[2]; Mango, Sachet",8 days
"COC(=O)/C=C\C(=O)OC [dimethyl maleate, Dimethyl maleate]",Ripening,"[2]; Example 156, mangoes, sachet, control 16 days",23 days
same,Spoilage Time - Sample (Ripening),"[2]; Mango, Sachet, control 16 days",23 days
"O=C(O)C(O)c1ccccc1 (stereo not drawn) [mandelic acid, Mandelic Acid]",Spoilage of coriander,"[3]; Example 161, soaking in 1% solution",significantly delayed
same,Spoilage Time - Sample (Wet),"[7]; Coriander, 0.5 hr soaking in 1% solution in water, control 7 days",7+ days
"OB(O)c1ccccc1 [phenylboronic acid, Phenylboronic acid]",Spoilage Time - Sample (Color change),"[3]; Broccoli, control 4 days",28 days
same,Color change from green to brown on the skin,"[3]; Example 137, limes, sprayed with 2% solution in water, room temperature, control 6 days",> 10 days
same,Spoilage Time - Sample (Color change),"[3]; Lime, control 6 days",6+ days
same,Spoilage Time - Sample (Color change),"[3]; Methi, control 4 days",28 days
same,Germination/sprouting,"[4]; Example 140, grains, mainly unhusked rice and soft white wheat, 2% spray, control 2 days",> 10 days
same,Spoilage Time - Sample (Germination),"[4]; Grains (mixed legumes and soft white wheat), 2% in water sprayed, control 2 days",7+ days
same,Curdling of milk,[5]; pasteurized whole and fat-free milk,delayed curdling
same,Spoilage Time - Sample (Fungus),"fungus; Blueberry, 2% in water sprayed, control 6 days",10+ days
same,Spoilage Time - Sample (Fungus),"fungus; Strawberry, 2% in water sprayed, control 6 days",10+ days
same,Fungus growth,"fungus; strawberries, raspberries, blackberries and lychee",either prevented or significantly delayed
(−)-Menthone,Shelf-life of flowery vegetables,[1],extended shelf-life
same,Dehydration/wilting,"[7]; Example 162, radish, vapor, control 5 days",less dehydration/wilting
same,Spoilage Time - Sample (Shriveling),"[7]; Radish, 2 hrs P-E, control 5 days",5 days
Ammonium carbonate,Spoilage Time - Sample (Color loss),[6]; Ground Beef,2+ days
same,Spoilage Time - Sample (Color loss),[6]; Ground Chicken,2+ days
same,Spoilage Time - Sample (Color loss),[6]; Tilapia fish fillet,2+ days
same,Improvements with meat and fish,[6]; meat and fish,demonstrated improvements
same,Shelf-life of flowery vegetables,[1],extended shelf-life
same,Effectiveness as shelf-life extender,[1]; tofu,effective
